Test results: patent US9988400B2 (Genentech, Inc., priority 2013, dated 2018)

Target: T1, HEK cells stably transfected with tetracycline inducible hNR1 and hNR2A (Homo sapiens, UniProt Q05586+Q12879)
T1 construct: expressed in transfected cells; host or cells: HEK cells, stably transfected, tetracycline/doxycycline inducible
Test: Assay 1: Cell-Based Assay, cytosolic calcium response to positive allosteric modulators (with 30 μM glycine and 300 nM L-glutamate, EC30)
Details: Table 2; for EC50: cytosolic calcium response, with 30 μM glycine and 300 nM L-glutamate (EC30), — = no plateau was reached; for Max %: responses scaled relative to 100 μM L-glutamate maximal response (100%) and 0 μM L-glutamate (0%)
Procedure, shortened: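 Cells induced 24 h with 7.5 μg mL^−1 doxycycline plus 500 μM (+)-ketamine, loaded 60 min at 37 °C with calcium dye in Mg-free HBSS (1.8 mM Ca, probenecid, 10 μM (+)-ketamine, pH 7.15). Peak RFU over 5 min after compound addition, scaled to 100 μM L-glutamate (100%) and 0 μM (0%); four-parameter Hill fit for EC50, max % if no plateau.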

T1 sequence (Q12879 23-1464, other chains not shown): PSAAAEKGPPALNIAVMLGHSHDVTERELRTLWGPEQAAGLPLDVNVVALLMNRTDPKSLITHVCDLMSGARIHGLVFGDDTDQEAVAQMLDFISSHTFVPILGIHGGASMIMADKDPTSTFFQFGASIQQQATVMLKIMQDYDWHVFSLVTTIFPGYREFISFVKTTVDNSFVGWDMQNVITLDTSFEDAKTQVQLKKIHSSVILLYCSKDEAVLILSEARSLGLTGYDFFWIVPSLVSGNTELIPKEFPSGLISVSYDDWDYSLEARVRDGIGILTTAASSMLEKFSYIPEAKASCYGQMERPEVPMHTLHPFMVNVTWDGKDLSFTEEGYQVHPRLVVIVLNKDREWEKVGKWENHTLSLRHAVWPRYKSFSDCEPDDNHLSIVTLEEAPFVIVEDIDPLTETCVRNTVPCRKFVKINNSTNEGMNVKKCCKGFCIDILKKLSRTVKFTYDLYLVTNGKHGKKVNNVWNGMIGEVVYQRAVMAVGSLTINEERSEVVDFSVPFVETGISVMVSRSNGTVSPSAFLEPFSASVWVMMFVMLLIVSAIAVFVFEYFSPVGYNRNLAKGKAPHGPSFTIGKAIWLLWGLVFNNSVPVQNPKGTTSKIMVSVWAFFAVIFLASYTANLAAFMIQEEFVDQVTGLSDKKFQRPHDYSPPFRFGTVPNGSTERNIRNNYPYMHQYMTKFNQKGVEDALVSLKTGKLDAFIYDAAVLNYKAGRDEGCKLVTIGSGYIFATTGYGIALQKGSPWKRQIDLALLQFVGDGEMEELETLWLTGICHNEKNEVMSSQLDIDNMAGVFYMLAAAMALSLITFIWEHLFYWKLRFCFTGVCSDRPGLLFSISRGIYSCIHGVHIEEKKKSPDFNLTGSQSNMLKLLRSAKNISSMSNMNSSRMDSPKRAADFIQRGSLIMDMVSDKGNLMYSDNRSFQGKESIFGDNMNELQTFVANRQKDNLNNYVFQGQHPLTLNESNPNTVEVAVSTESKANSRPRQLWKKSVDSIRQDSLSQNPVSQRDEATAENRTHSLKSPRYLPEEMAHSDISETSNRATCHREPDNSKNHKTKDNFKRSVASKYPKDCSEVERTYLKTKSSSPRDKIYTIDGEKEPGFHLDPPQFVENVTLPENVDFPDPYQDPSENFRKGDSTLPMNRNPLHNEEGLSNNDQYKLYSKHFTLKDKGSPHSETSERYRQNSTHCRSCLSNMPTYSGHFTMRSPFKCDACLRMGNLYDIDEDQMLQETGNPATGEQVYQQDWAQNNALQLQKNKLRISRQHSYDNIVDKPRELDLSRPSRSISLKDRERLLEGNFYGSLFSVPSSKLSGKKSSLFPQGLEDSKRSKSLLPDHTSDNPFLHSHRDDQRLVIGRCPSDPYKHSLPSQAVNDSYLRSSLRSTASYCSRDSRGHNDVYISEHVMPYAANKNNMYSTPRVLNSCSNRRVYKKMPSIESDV

Structure (SMILES) | EC50 [µM] | Max % [%]
CCN(Cc1cc(=O)n2c(C(O)CCO)c(C)sc2n1)c1ccc(F)cc1 (stereo not shown) [Example 12.1, 3-(1,3-dihydroxypropyl)-7-[(N-ethyl-4-fluoro-anilino)methyl]-2-methyl-thiazolo[3,2-a]pyrimidin-5-one] | 0.723 | 166
CCN(Cc1cc(=O)n2c(C(F)CCO)c(C)sc2n1)c1ccc(F)cc1 (stereo not shown) [Example 12.2, 7-[(N-ethyl-4-fluoro-anilino)methyl]-3-(1-fluoro-3-hydroxy-propyl)-2-methyl-thiazolo[3,2-a]pyrimidin-5-one] | 0.27 | 192
CCN(Cc1cc(=O)n2c(CCCOC)c(C)sc2n1)c1ccc(F)cc1 [Example 13.2, 7-((Ethyl(4-fluorophenyl)amino)methyl)-3-(3-methoxypropyl)-2-methyl-5H-thiazolo[3,2-a]pyrimidin-5-one] | 0.913 | 130
CCN(Cc1cc(=O)n2c(CCO)c(C)sc2n1)c1ccc(F)cc1 [Example 13.4, 7-((Ethyl(4-fluorophenyl)amino)methyl)-3-(2-hydroxyethyl)-2-methyl-5H-thiazolo[3,2-a]pyrimidin-5-one] | 0.777 | 185
CCN(Cc1cc(=O)n2c(CCOC)c(C)sc2n1)c1ccc(F)cc1 [Example 13.5, 7-[[Ethyl(4-fluorophenyl)amino]methyl]-3-(2-methoxyethyl)-2-methyl-5H-[1,3]thiazolo[3,2-a]pyrimidin-5-one] | 1 | 152
CCN(Cc1cc(=O)n2c(CCC#N)c(C)sc2n1)c1ccc(F)cc1 [Example 13.7, 3-[7-[(N-ethyl-4-fluoro-anilino)methyl]-2-methyl-5-oxo-thiazolo[3,2-a]pyrimidin-3-yl]propanenitrile] | 0.547 | 137
CCN(Cc1cc(=O)n2c(CCC(=O)N(C)C)c(C)sc2n1)c1ccc(F)cc1 [Example 13.8, 3-[7-[(N-ethyl-4-fluoro-anilino)methyl]-2-methyl-5-oxo-thiazolo[3,2-a]pyrimidin-3-yl]-N,N-dimethyl-propanamide] |  | 61.2
CCN(Cc1cc(=O)n2c(C3CC3C(N)=O)c(C)sc2n1)c1ccc(F)cc1 (stereo not shown) [Example 14.1, 2-[7-[(N-ethyl-4-fluoro-anilino)methyl]-2-methyl-5-oxo-thiazolo[3,2-a]pyrimidin-3-yl]cyclopropanecarboxamide] | 2.6 | 163
CC(C)c1sc2nc(Cn3nc(C(F)(F)F)cc3C3CC3)cc(=O)n2c1C1CC1CO (stereo not shown) [Example 15.24, 7-[[5-cyclopropyl-3-(trifluoromethyl)pyrazol-1-yl]methyl]-3[2-(hydroxymethyl)cyclopropyl]-2-isopropyl-thiazolo[3,2-a]pyrimidin-5-one] | 1.4 | 138
Cc1sc2nc(Cn3nc(C4CC4)cc3C(F)(F)F)cc(=O)n2c1-c1cncnc1 [Example 15.28, 7-((3-cyclopropyl-5-(trifluoromethyl)-1H-pyrazol-1-yl)methyl)-2-methyl-3-(pyrimidin-5-yl)-5H-thiazolo[3,2-a]pyrimidin-5-one] |  | 80.8
Cc1sc2nc(Cn3nc(C(F)(F)F)cc3C3CC3)cc(=O)n2c1-c1cncnc1 [Example 15.29, 7-((5-cyclopropyl-3-(trifluoromethyl)-1H-pyrazol-1-yl)methyl)-2-methyl-3-(pyrimidin-5-yl)-5H-thiazolo[3,2-a]pyrimidin-5-one] | 7 | 135
Cc1sc2nc(Cn3nc(C(F)(F)F)cc3C(F)(F)F)cc(=O)n2c1-c1cncnc1 [Example 15.30, 7-((3,5-bis(trifluoromethyl)-1H-pyrazol-1-yl)methyl)-2-methyl-3-(pyrimidin-5-yl)-5H-thiazolo[3,2-a]pyrimidin-5-one] | 22 | 116
Cc1sc2nc(Cn3nccc3C(F)(F)F)cc(=O)n2c1-c1cncnc1 [Example 15.31, 2-methyl-3-(pyrimidin-5-yl)-7-((5-(trifluoromethyl)-1H-pyrazol-1-yl)methyl)-5H-thiazolo[3,2-a]pyrimidin-5-one] |  | 57.8
Cc1cn2c(=O)cc(Cn3nc(C(F)(F)F)cc3C(F)(F)F)nc2s1 [Example 15.33, 7-((3,5-bis(trifluoromethyl)-1H-pyrazol-1-yl)methyl)-2-methyl-5H-thiazolo[3,2-a]pyrimidin-5-one] | 18.8 | 51.8
Cc1sc2nc(Cn3ncc4ccccc43)cc(=O)n2c1-c1cncnc1 [Example 15.34, 7-((1H-indazol-1-yl)methyl)-2-methyl-3-(pyrimidin-5-yl)-5H-thiazolo[3,2-a]pyrimidin-5-one] |  | 48.2
CNC(=O)c1c(C)sc2nc(Cn3nc(C4CC4)cc3C(F)(F)F)cc(=O)n12 [Example 16.2, 7-((3-cyclopropyl-5-(trifluoromethyl)-1H-pyrazol-1-yl)methyl)-N,2-dimethyl-5-oxo-5H-thiazolo[3,2-a]pyrimidine-3-carboxamide] | 11.7 | 110
CCNC(=O)c1c(C(F)(F)F)sc2nc(Cn3nc(C(F)(F)F)cc3C3CC3)cc(=O)n12 [Example 16.3, 7-((5-cyclopropyl-3-(trifluoromethyl)-1H-pyrazol-1-yl)methyl)-N-ethyl-5-oxo-2-(trifluoromethyl)-5H-thiazolo[3,2-a]pyrimidine-3-carboxamide] | 1.4 | 160
CCNC(=O)c1c(C(F)(F)F)sc2nc(Cn3nc(C4CC4)cc3C(F)(F)F)cc(=O)n12 [Example 16.4, 7-((3-cyclopropyl-5-(trifluoromethyl)-1H-pyrazol-1-yl)methyl)-N-ethyl-5-oxo-2-(trifluoromethyl)-5H-thiazolo[3,2-a]pyrimidine-3-carboxamide] | 9.2 | 130
CCNC(=O)c1csc2nc(Cn3nc(C(F)(F)F)cc3C3CC3)cc(=O)n12 [Example 16.5, 7-((5-cyclopropyl-3-(trifluoromethyl)-1H-pyrazol-1-yl)methyl)-N-ethyl-5-oxo-5H-thiazolo[3,2-a]pyrimidine-3-carboxamide] | 10.6 | 149

The next lines start with the values.

EC50 [µM] | Max % [%] | Structure (SMILES)
0.974 | 153 | CCN(Cc1cc(=O)n2c(C(O)CO)c(C)sc2n1)c1ccc(F)cc1 (stereo not shown) [Example 12.5, 3-(1,2-dihydroxyethyl)-7-[(N-ethyl-4-fluoro-anilino)methyl]-2-methyl-thiazolo[3,2-a]pyrimidin-5-one]
0.434 | 161 | CCN(Cc1cc(=O)n2c(CCCO)c(C)sc2n1)c1ccc(F)cc1 [Example 13.1, 7-[(N-ethyl-4-fluoro-anilino)methyl]-3-(3-hydroxypropyl)-2-methyl-thiazolo[3,2-a]pyrimidin-5-one]
0.783 | 137 | CCN(Cc1cc(=O)n2c(CCCCO)c(C)sc2n1)c1ccc(F)cc1 [Example 13.3, 7-((Ethyl(4-fluorophenyl)amino)methyl)-3-(4-hydroxybutyl)-2-methyl-5H-thiazolo[3,2-a]pyrimidin-5-one]
1.4 | 125 | CCN(Cc1cc(=O)n2c(CCC(N)=O)c(C)sc2n1)c1ccc(F)cc1 [Example 13.6, 3-(7-[[ethyl(4-fluorophenyl)amino]methyl]-2-methyl-5-oxo-5H-[1,3]thiazolo[3,2-a]pyrimidin-3-yl)propanamide]
5 | 166 | CCN(Cc1cc(=O)n2c(CCC(C)(C)O)c(C)sc2n1)c1ccc(F)cc1 [Example 13.9, 7-[[Ethyl(4-fluorophenyl)amino]methyl]-3-(3-hydroxy-3-methylbutyl)-2-methyl-5H-[1,3]thiazolo[3,2-a]pyrimidin-5-one]
0.122 | 205 | CCN(Cc1cc(=O)n2c(C3CC3C#N)c(C)sc2n1)c1ccc(F)cc1 (stereo not shown) [Example 14.2, 2-(7-[[ethyl(4-fluorophenyl)amino]methyl]-2-methyl-5-oxo-5H-[1,3]thiazolo[3,2-a]pyrimidin-3-yl)cyclopropane-1-carbonitrile]
2.2 | 144 | CCc1cc(C(F)(F)F)nn1Cc1cc(=O)n2c(C3CC3CO)c(C)sc2n1 (stereo not shown) [Example 15.1, 7-((5-ethyl-3-(trifluoromethyl)-1H-pyrazol-1-yl)methyl)-3-(2-(hydroxymethyl)cyclopropyl)-2-methyl-5H-thiazolo[3,2-a]pyrimidin-5-one]
18.6 | 117 | Cc1sc2nc(Cn3nc(C4CC4)c(F)c3C(F)(F)F)cc(=O)n2c1C1CC1CO (stereo not drawn) [Example 15.9, 7-((3-cyclopropyl-4-fluoro-5-(trifluoromethyl)-1H-pyrazol-1-yl)methyl)-3-(trans-2-(hydroxymethyl)cyclopropyl)-2-methyl-5H-thiazolo[3,2-a]pyrimidin-5-one]
3.1 | 133 | Cc1sc2nc(Cn3nc(C(F)(F)F)c(F)c3C3CC3)cc(=O)n2c1C1CC1CO (stereo not drawn) [Example 15.10, 7-((5-cyclopropyl-4-fluoro-3-(trifluoromethyl)-1H-pyrazol-1-yl)methyl)-3-(trans-2-(hydroxymethyl)cyclopropyl)-2-methyl-5H-thiazolo[3,2-a]pyrimidin-5-one]
 | 94.8 | Cc1sc2nc(Cn3nc(C(F)(F)F)cc3C)cc(=O)n2c1-c1cncnc1 [Example 15.32, 2-methyl-7-((5-methyl-3-(trifluoromethyl)-1H-pyrazol-1-yl)methyl)-3-(pyrimidin-5-yl)-5H-thiazolo [3,2-a]pyrimidin-5-one]
2.3 | 140 | CNC(=O)c1c(C)sc2nc(Cn3nc(C(F)(F)F)cc3C3CC3)cc(=O)n12 [Example 16.1, 7-((5-cyclopropyl-3-(trifluoromethyl)-1H-pyrazol-1-yl)methyl)-N,2-dimethyl-5-oxo-5H-thiazolo[3,2-a]pyrimidine-3-carboxamide]
